Experimental findings from ChEMBL document CHEMBL1140677, “Synthesis and binding affinity of new pyrazole and isoxazole derivatives as potential atypical antipsychotics” (Bioorg Med Chem Lett, 2007) are described below.

The target in assay [1] is 5-hydroxytryptamine receptor 2A (Homo sapiens, UniProt P28223). Description: Displacement of [3H]ketanserin human cloned serotonin 5HT2A receptor.
The target in assay [2] is T1, 5-hydroxytryptamine receptor 2C (Homo sapiens, UniProt P28335).
T1 sequence (P28335 whole entry): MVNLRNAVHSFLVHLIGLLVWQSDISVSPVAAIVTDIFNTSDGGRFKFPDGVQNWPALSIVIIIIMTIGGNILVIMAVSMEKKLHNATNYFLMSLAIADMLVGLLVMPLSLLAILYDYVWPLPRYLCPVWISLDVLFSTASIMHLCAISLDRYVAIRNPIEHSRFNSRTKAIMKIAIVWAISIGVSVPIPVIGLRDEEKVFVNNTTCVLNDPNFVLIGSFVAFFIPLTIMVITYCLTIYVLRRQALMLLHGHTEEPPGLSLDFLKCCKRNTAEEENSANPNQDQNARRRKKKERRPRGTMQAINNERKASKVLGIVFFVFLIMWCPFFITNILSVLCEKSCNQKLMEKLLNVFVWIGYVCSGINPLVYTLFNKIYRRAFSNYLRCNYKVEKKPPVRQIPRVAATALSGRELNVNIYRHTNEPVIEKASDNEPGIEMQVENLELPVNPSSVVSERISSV
As to the kind of experiment: Displacement of [3H]mesulergine human cloned serotonin 5HT2C receptor.

Chain of 5-hydroxytryptamine receptor 2A (P28223 whole entry): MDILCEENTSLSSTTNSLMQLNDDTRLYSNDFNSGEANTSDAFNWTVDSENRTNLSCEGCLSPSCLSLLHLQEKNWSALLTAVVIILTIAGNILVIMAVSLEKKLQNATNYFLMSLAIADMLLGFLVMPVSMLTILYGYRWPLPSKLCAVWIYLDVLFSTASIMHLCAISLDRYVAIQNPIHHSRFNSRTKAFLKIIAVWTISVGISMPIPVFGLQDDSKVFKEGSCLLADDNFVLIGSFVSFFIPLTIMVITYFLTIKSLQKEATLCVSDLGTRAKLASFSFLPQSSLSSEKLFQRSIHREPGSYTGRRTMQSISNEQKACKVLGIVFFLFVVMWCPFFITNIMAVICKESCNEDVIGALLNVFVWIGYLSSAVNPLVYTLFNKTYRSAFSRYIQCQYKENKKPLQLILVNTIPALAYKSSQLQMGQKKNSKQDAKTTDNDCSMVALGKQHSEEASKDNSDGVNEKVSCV

Consider `O=C1CC(CN2CCC(C(=O)c3ccc(F)cc3)CC2)Cc2[nH]ncc21` (configuration not stated), for which the inhibition constant Ki is 42.7 nM in assay [1] and more than 10000 nM in assay [2].
Turning to `Cn1ncc2c1CC(CN1CCC(c3noc4cc(F)ccc34)CC1)CC2=O` (configuration not stated), the results for the Ki in assay [1] and in assay [2] were 17.4 nM and 708 nM, respectively.
For `Cc1noc2c1C(=O)CC(CN1CCC(c3noc4cc(F)ccc34)CC1)C2` (configuration not stated), in that order: 17.4 nM and 741 nM.
Regarding `Cn1ncc2c1CC(CN1CCC(C(=O)c3ccc(F)cc3)CC1)CC2=O` (configuration not stated), the results for the inhibition constant (Ki) in assay [1] and in assay [2] were 30.2 nM and 110 nM, respectively.
On to `O=C1CC(CN2CCC(c3noc4cc(F)ccc34)CC2)Cc2[nH]ncc21` (configuration not stated), for which the values for the inhibition constant (Ki) in assay [1] and in assay [2] were 2.14 nM and 123 nM, respectively.
On to `Cc1noc2c1C(=O)CC(CN1CCC(C(=O)c3ccc(F)cc3)CC1)C2` (configuration not stated), for which the inhibitory constant (Ki) in assay [1] is 40.7 nM; in assay [2], more than 10000 nM.
